Results taken from publication PMC9604400, “Synthesis, Anticancer and Antitubercular Properties of New Chalcones and Their Nitrogen-Containing Five-Membered Heterocyclic Hybrids Bearing Sulfonamide Moiety” (International Journal of Molecular Sciences, 2022).
In brackets after ≈: the same amount, converted by molar mass. Read-outs that look alike come from different tables or passages of the source.

Tests used:
[1] = Figure 1, literature compound, cited from earlier work
α-glucosidase = conditions: Figure 1, literature compound; cited from earlier work
[2] = system: 60 human cancer cell lines; assay: NCI-60 screen (SRB), whole panel; format: cell-based; conditions: Homo sapiens; single dose 10 μM, mean over 60 cell lines; over 100% = cell death; read-out: Mean growth inhibition (GI) percentage
[3] = system: Mycobacterium bovis BCG (ATCC 35734); assay: microbe, parasite or virus in culture; format: cell-based; conditions: for MIC: Mycobacterium tuberculosis variant bovis BCG, read-out: MIC Against M. bovis BCG; for MIC Against M. bovis BCG: agar dilution SPOTi
[4] = system: Mycobacterium tuberculosis H37Rv (ATCC 27294); assay: microbe, parasite or virus in culture; format: cell-based; conditions: agar dilution SPOTi, read-out: MIC Against M. tuberculosis H37Rv
[5] = Cytotoxicity on Vero cell line (MTT); format: cell-based, African green monkey; conditions: African green monkey, Vero cells (African green monkey kidney, ATCC CCL-81); MTT, 24 h
Vero cell line = assay: Cytotoxicity on Vero cell line (MTT); format: cell-based, African green monkey; conditions: Vero IC50 / MIC M. tuberculosis H37Rv
M. tuberculosis H37Rv [6] = assay: Checkerboard synergism assay; format: cell-based, Mycobacterium tuberculosis; conditions: for MIC: Mycobacterium tuberculosis, H37RV, checkerboard, alone
Protocol: The synergism assays were carried out in 96-well plates with Middlebrook 7H9 medium supplemented with OADC.

M. tuberculosis H37Rv [7] = assay: Growth curves in liquid medium and re-plating (cidal or static); format: cell-based, Mycobacterium tuberculosis; conditions: for cidal or static effect: re-plating on solid media without compound, up to 10×MIC
[8] = compound in combination with AMK
[9] = compound in combination with INH
[10] = compound in combination with LVX
[11] = compound in combination with RIF
[12] = 10×MIC, 21 days, compared with day 0
[13] = antibiotic in combination with 20a
[14] = antibiotic in combination with 20f

Row | Compound | inhibition at 10 µM [2] | melting point | MIC [3] | MIC ([4]; Mycobacterium tuberculosis) | IC50 at 24 h [5] | other results
1 | Cc1ccc(S(=O)(=O)Nc2ccc(C(=O)/C=C/c3ccc(Br)cc3)cc2)cc1 [Compound 1] | – | – | – | – | – | LD50 [1]: 220 µM
2 | Cc1ccc(S(=O)(=O)Nc2ccc(C(=O)/C=C/c3ccc(O)c(O)c3)cc2)cc1 [Compound 2] | – | – | – | – | – | IC50 (α-glucosidase): 400 nM
3 | NS(=O)(=O)c1ccc(N2N=C(C(F)(F)F)CC2c2ccc(F)cc2F)cc1 (centres unmarked) [Compound 4] | – | – | – | – | – | ED50 ([1]; test not given): 7400 nM
4 | COc1ccc(/C=C/C(=O)c2cc(S(N)(=O)=O)c(OC)cc2OC)cc1 [Compound 17d, (E)-2,4-Dimethoxy-5-(3-(4-methoxyphenyl)acryloyl)benzenesulfonamide] | 30% | 215 to 218 °C | – | – | – | –
5 | COc1cc(OC)c(S(N)(=O)=O)cc1C(=O)/C=C/c1cc(OC)c(OC)c(OC)c1 [Compound 17e, (E)-2,4-Dimethoxy-5-(3-(3,4,5-trimethoxyphenyl)acryloyl)benzenesulfonamide] | 24.7% | 253 to 256 °C | – | – | – | –
6 | COc1cc(OC)c(S(N)(=O)=O)cc1C(=O)/C=C/c1ccc2c(c1)OCO2 [Compound 17f, (E)-5-(3-(Benzo[d][1,3]dioxol-5-yl)acryloyl)-2,4-dimethoxybenzenesulfonamide] | 10.1% | 257 to 258 °C | > 25 µM | 25 µM (≈ 9.79 µg/mL) | 1700 ± 1740 nM | Selectivity Index (SI) (SI = IC50/MIC) (Vero cell line): 0.07
7 | COc1ccc(C(=O)C=Cc2ccccc2)cc1S(=O)(=O)NNC(=O)c1ccncc1 [Compound 19a, 5-Cinnamoyl-N’-isonicotinoyl-2-methoxybenzenesulfonohydrazide] | 3.63% | 227 to 229 °C | > 23 µM | 23 µM (≈ 10.1 µg/mL) | 6320 ± 820 nM | Selectivity Index (SI) (SI = IC50/MIC) (Vero cell line): 0.28
8 | COc1ccc(C(=O)/C=C/c2ccc(Cl)cc2)cc1S(=O)(=O)NNC(=O)c1ccncc1 [Compound 19b, (E)-5-(3-(4-Chlorophenyl)acryloyl)-N’-isonicotinoyl-2-methoxybenzenesulfonohydrazide] | 0.96% | 242 to 244 °C | – | – | – | –
9 | COc1ccc(/C=C/C(=O)c2ccc(OC)c(S(=O)(=O)NNC(=O)c3ccncc3)c2)cc1 [Compound 19d, (E)-N’-Isonicotinoyl-2-methoxy-5-(3-(4-methoxyphenyl)acryloyl)benzenesulfonohydrazide] | – | 216 to 217 °C | > 21 µM | 21 µM (≈ 9.82 µg/mL) | 2190 ± 680 nM | Selectivity Index (SI) (SI = IC50/MIC) (Vero cell line): 0.10
10 | COc1ccc(C(=O)/C=C/c2cc(OC)c(OC)c(OC)c2)cc1S(=O)(=O)NNC(=O)c1ccncc1 [Compound 19e, (E)-N’-Isonicotinoyl-2-methoxy-5-(3-(3,4,5-trimethoxyphenyl)acryloyl)benzenesulfonohydrazide] | 7.7% | 202 to 204 °C | – | – | – | –
11 | COc1ccc(C(=O)/C=C/c2ccc3c(c2)OCO3)cc1S(=O)(=O)NNC(=O)c1ccncc1 [Compound 19f, (E)-5-(3-(Benzo[d][1,3]dioxol-5-yl)acryloyl)-N’-isonicotinoyl-2-methoxybenzenesulfonohydrazide] | 0.48% | 245 to 248 °C | – | – | – | –
12 | COc1cc(OC)c(S(=O)(=O)NNC(=O)c2ccncc2)cc1C(=O)C=Cc1ccccc1 [Compound 20a, 5-Cinnamoyl-N’-isonicotinoyl-2,4-dimethoxybenzenesulfonohydrazide] | 19% | 143 to 145 °C | 11 µM (≈ 5.14 µg/mL) | 11 µM (≈ 5.14 µg/mL) | 6050 ± 1390 nM | MIC Against M. bovis BCG [3]: 11 µM (≈ 5.14 µg/mL); MIC [4]: 11 µM (≈ 5.14 µg/mL); MIC (M. tuberculosis H37Rv [6]): 5 µg/mL; FICI Index (M. tuberculosis H37Rv [6]; [8]): 2.00; MIC Combination (M. tuberculosis H37Rv [6]; [8]): 5 µg/mL; FICI Index (M. tuberculosis H37Rv [6]; [9]): 0.75; MIC Combination (M. tuberculosis H37Rv [6]; [9]): 1.25 µg/mL; FICI Index (M. tuberculosis H37Rv [6]; [10]): 1.25; MIC Combination (M. tuberculosis H37Rv [6]; [10]): 1.25 µg/mL; FICI Index (M. tuberculosis H37Rv [6]; [11]): 1.25; MIC Combination (M. tuberculosis H37Rv [6]; [11]): 5 µg/mL
13 | COc1cc(OC)c(S(=O)(=O)NNC(=O)c2ccncc2)cc1C(=O)/C=C/c1ccc(Cl)cc1 [Compound 20b, (E)-5-(3-(4-Chlorophenyl)acryloyl)-N’-isonicotinoyl-2,4-dimethoxybenzenesulfonohydrazide] | 20% | 196 to 198 °C | – | – | – | –
14 | COc1cc(OC)c(S(=O)(=O)NNC(=O)c2ccncc2)cc1C(=O)/C=C/c1ccc(C)cc1 [Compound 20c, (E)-N’-Isonicotinoyl-2,4-dimethoxy-5-(3-(p-tolyl)acryloyl)benzenesulfonohydrazide] | 26.9% | 195 to 197 °C | – | – | – | –
15 | COc1ccc(/C=C/C(=O)c2cc(S(=O)(=O)NNC(=O)c3ccncc3)c(OC)cc2OC)cc1 [Compound 20d, (E)-N’-Isonicotinoyl-2,4-dimethoxy-5-(3-(4-methoxyphenyl)acryloyl)benzenesulfonohydrazide] | – | 214 to 217 °C | > 20 µM | 20 µM (≈ 9.95 µg/mL) | 1000 ± 1200 nM | Selectivity Index (SI) (SI = IC50/MIC) (Vero cell line): 0.05
16 | COc1cc(OC)c(S(=O)(=O)NNC(=O)c2ccncc2)cc1C(=O)/C=C/c1cc(OC)c(OC)c(OC)c1 [Compound 20e, (E)-N’-Isonicotinoyl-2,4-dimethoxy-5-(3-(3,4,5-trimethoxyphenyl)acryloyl)benzenesulfonohydrazide] | – | 162 to 165 °C | 9 µM (≈ 5.02 µg/mL) | 9 µM (≈ 5.02 µg/mL) | 260 ± 690 nM | MIC Against M. bovis BCG [3]: 9.0 µM (≈ 5.02 µg/mL); Selectivity Index (SI) (SI = IC50/MIC) (Vero cell line): 0.03; growth of M. tuberculosis H37Rv in liquid medium (optical density) (M. tuberculosis H37Rv [7]; 1×MIC, after 21 days): moderate growth; growth of M. tuberculosis H37Rv in liquid medium (optical density) (M. tuberculosis H37Rv [7]; [12]): modest growth; cidal or static effect (M. tuberculosis H37Rv [7]): bacteriostatic
17 | COc1cc(OC)c(S(=O)(=O)NNC(=O)c2ccncc2)cc1C(=O)/C=C/c1ccc2c(c1)OCO2 [Compound 20f, (E)-5-(3-(Benzo[d][1,3]dioxol-5-yl)acryloyl)-N’-isonicotinoyl-2,4-dimethoxybenzenesulfonohydrazide] | 4.19% | 150 to 152 °C | 20 µM (≈ 10.2 µg/mL) | 9.8 µM (≈ 5.01 µg/mL) | 2550 ± 930 nM | Selectivity Index (SI) (SI = IC50/MIC) (Vero cell line): 0.26; MIC (M. tuberculosis H37Rv [6]): 5 µg/mL; FICI Index (M. tuberculosis H37Rv [6]; [8]): 2.00; MIC Combination (M. tuberculosis H37Rv [6]; [8]): 5 µg/mL; FICI Index (M. tuberculosis H37Rv [6]; [9]): 1.00; MIC Combination (M. tuberculosis H37Rv [6]; [9]): 2.5 µg/mL; FICI Index (M. tuberculosis H37Rv [6]; [10]): 1.00; MIC Combination (M. tuberculosis H37Rv [6]; [10]): 2.5 µg/mL; MIC Combination (M. tuberculosis H37Rv [6]; [11]): 1.25 µg/mL; interaction (from FICI) (M. tuberculosis H37Rv [6]; in combination with rifampicin): synergism; growth of M. tuberculosis H37Rv in liquid medium (optical density) (M. tuberculosis H37Rv [7]; 1×MIC, after 21 days): moderate growth; growth of M. tuberculosis H37Rv in liquid medium (optical density) (M. tuberculosis H37Rv [7]; [12]): no significant growth; cidal or static effect (M. tuberculosis H37Rv [7]): bacteriostatic
18 | COc1ccc(C2=NN(C=O)C(c3ccc(Cl)cc3)C2)cc1S(N)(=O)=O (centres unmarked) [Compound 22a, 5-(5-(4-Chlorophenyl)-1-formyl-4,5-dihydro-1H-pyrazol-3-yl)-2-methoxybenzenesulfonamide] | 2.15% | 230 to 231 °C | – | – | – | –
19 | COc1ccc(C2=NN(C(N)=S)C(c3ccc(Cl)cc3)C2)cc1S(N)(=O)=O (centres unmarked) [Compound 27a, 5-(4-Chlorophenyl)-3-(4-methoxy-3-sulfamoylphenyl)-4,5-dihydro-1H-pyrazole-1-carbothioamide] | -0.54% | 206 to 208 °C | – | – | – | –
20 | COc1cc(OC)c(S(N)(=O)=O)cc1C1=NN(C(N)=S)C(c2ccc(Cl)cc2)C1 (centres unmarked) [Compound 27d, 5-(4-Chlorophenyl)-3-(2,4-dimethoxy-5-sulfamoylphenyl)-4,5-dihydro-1H-pyrazole-1-carbothioamide] | 2.34% | 223 to 225 °C | – | – | – | –
21 | NNC(=O)c1ccncc1 [Isoniazid, isoniazid, reference compound] | – | – | 0.36 µM (≈ 0.0494 µg/mL) | 0.36 µM (≈ 0.0494 µg/mL) | – | MIC (M. tuberculosis H37Rv [6]): 0.012 µg/mL; FICI Index (M. tuberculosis H37Rv [6]; [13]): 0.75; MIC Combination (M. tuberculosis H37Rv [6]; [13]): 0.006 µg/mL; FICI Index (M. tuberculosis H37Rv [6]; [14]): 1.00; MIC Combination (M. tuberculosis H37Rv [6]; [14]): 0.006 µg/mL
